Measured values taken from the supplement of paper PMC10307832.

Compound: COc1cc(Nc2ncc(F)c(Nc3ccc4c(n3)NC(=O)C(C)(C)O4)n2)cc(OC)c1OC [R406] + CC(=O)Nc1cccc(-n2c(=O)n(C3CC3)c(=O)c3c(Nc4ccc(I)cc4F)n(C)c(=O)c(C)c32)c1 [Trametinib] (partner 0.02 µM)
Assay: relative viability (nuclei count vs DMSO), 5 days (fraction); higher = more cells survive
Details: first compound 0.08 µM
How it was run: (§1)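 The day after seeding in 1536-well plates, lung cancer cell lines were treated by pin tool with a single drug, or with a fixed anchor-drug dose together with five library-drug doses (not always all listed) in √10 steps. After 5 days, a combined fix-and-stain solution (final 0.05% Triton X-100, 1% formaldehyde, 1 ug/ml Hoechst) was added. Nuclei counted on 4× images gave relative viability as treated counts over vehicle counts, reported as the median of duplicate plates.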

Compared with NCI-H460, NCI-H727 is higher in relative viability: 0.0847 for the first, 0.416 for the second.

Compared with NCI-H1734, NCI-H520 is higher in relative viability: 0.637 for the first, 0.665 for the second.

First: NCI-H2347
Second: SW 1573
The relative viability of the first is lower: 0.304 for the first, 0.548 for the second.

Going from 201T to NCI-H1915, the relative viability falls from 0.696 to 0.324.

Going from HCC-827 to LXF-289, the relative viability rises from 0.564 to 0.675.

Going from NCI-H23 to NCI-H650, the relative viability rises from 0.288 to 0.949.

Going from NCI-H1651 to EPLC-272H, the relative viability falls from 0.75 to 0.324.

NCI-H1792 showed a relative viability of 0.428.

Same assay, conditions: first compound 0.253 µM

First: NCI-H460
Second: NCI-H727
The relative viability of the first is higher: 0.4 for the first, 0.344 for the second.

Compared with NCI-H1734, NCI-H520 is higher in relative viability: 0.685 for the first, 0.792 for the second.

First: NCI-H2347
Second: SW 1573
The relative viability of the first is lower: 0.285 for the first, 0.614 for the second.

First: 201T
Second: NCI-H1915
The relative viability of the first is higher: 0.72 for the first, 0.334 for the second.

Going from HCC-827 to LXF-289, the relative viability rises from 0.578 to 0.694.

Compared with NCI-H23, NCI-H650 is higher in relative viability: 0.376 for the first, 1.06 for the second.

Compared with NCI-H1651, EPLC-272H is lower in relative viability: 0.821 for the first, 0.333 for the second.

Cell Line NCI-H1792 has a relative viability of 0.443.

Same assay, conditions: first compound 0.8 µM

Compared with NCI-H460, NCI-H727 is higher in relative viability: 0.258 for the first, 0.453 for the second.

First: NCI-H1734
Second: NCI-H520
The relative viability of the first is lower: 0.715 for the first, 0.935 for the second.

Going from NCI-H2347 to SW 1573, the relative viability rises from 0.282 to 0.628.

Going from 201T to NCI-H1915, the relative viability falls from 0.726 to 0.313.

Going from HCC-827 to LXF-289, the relative viability rises from 0.517 to 0.68.

Going from NCI-H23 to NCI-H650, the relative viability rises from 0.444 to 1.

Going from NCI-H1651 to EPLC-272H, the relative viability falls from 0.843 to 0.305.

In the case of NCI-H1792, the relative viability is reported as 0.427.

Same assay, conditions: first compound 2.53 µM

Going from NCI-H460 to NCI-H727, the relative viability rises from 0.0114 to 0.406.

First: NCI-H1734
Second: NCI-H520
The relative viability of the first is higher: 0.575 for the first, 0.258 for the second.

Going from NCI-H2347 to SW 1573, the relative viability rises from 0.244 to 0.443.

Going from 201T to NCI-H1915, the relative viability falls from 0.674 to 0.268.

First: HCC-827
Second: LXF-289
The relative viability of the first is lower: 0.399 for the first, 0.67 for the second.

First: NCI-H23
Second: NCI-H650
The relative viability of the first is lower: 0.399 for the first, 0.818 for the second.

Compared with NCI-H1651, EPLC-272H is lower in relative viability: 0.852 for the first, 0.166 for the second.

Work on NCI-H1792 yielded a relative viability of 0.178.

Same assay, conditions: first compound 8 µM

Compared with NCI-H460, NCI-H727 is higher in relative viability: 0.0382 for the first, 0.372 for the second.

Compared with NCI-H1734, NCI-H520 is lower in relative viability: 0.383 for the first, 0.124 for the second.

Going from NCI-H2347 to SW 1573, the relative viability falls from 0.255 to 0.193.

First: 201T
Second: NCI-H1915
The relative viability of the first is higher: 0.679 for the first, 0.197 for the second.

First: HCC-827
Second: LXF-289
The relative viability of the first is lower: 0.383 for the first, 0.672 for the second.

Compared with NCI-H23, NCI-H650 is higher in relative viability: 0.128 for the first, 0.819 for the second.

Compared with NCI-H1651, EPLC-272H is lower in relative viability: 0.831 for the first, 0.21 for the second.

Work on NCI-H1792 yielded a relative viability of 0.0999.

Compound: COc1cc(Nc2ncc(F)c(Nc3ccc4c(n3)NC(=O)C(C)(C)O4)n2)cc(OC)c1OC [R406] + CC(C)C[C@H](NC(=O)[C@H](Cc1ccccc1)NC(=O)c1cnccn1)B(O)O [Bortezomib] (partner 0.002 µM)
Assay: as above
Details: first compound 0.08 µM
How it was run: as §1

First: NCI-H460
Second: NCI-H727
The relative viability of the first is higher: 0.96 for the first, 0.803 for the second.

First: NCI-H1734
Second: NCI-H520
The relative viability of the first is higher: 0.828 for the first, 0.604 for the second.

Compared with NCI-H2347, SW 1573 is lower in relative viability: 1.07 for the first, 0.994 for the second.

Going from 201T to NCI-H1915, the relative viability falls from 1.11 to 0.963.

Compared with HCC-827, LXF-289 is lower in relative viability: 1.06 for the first, 0.913 for the second.

Going from NCI-H23 to NCI-H650, the relative viability falls from 0.953 to 0.712.

Compared with NCI-H1651, EPLC-272H is lower in relative viability: 0.921 for the first, 0.813 for the second.

In the case of NCI-H1792, the relative viability is reported as 0.981.

Same assay, conditions: first compound 0.253 µM

Going from NCI-H460 to NCI-H727, the relative viability falls from 1.33 to 0.965.

Going from NCI-H1734 to NCI-H520, the relative viability falls from 1.16 to 0.804.

Compared with NCI-H2347, SW 1573 is lower in relative viability: 1.25 for the first, 1.23 for the second.

Compared with 201T, NCI-H1915 is lower in relative viability: 1.09 for the first, 1.01 for the second.

Compared with HCC-827, LXF-289 is lower in relative viability: 1.12 for the first, 0.953 for the second.

First: NCI-H23
Second: NCI-H650
The relative viability of the first is higher: 1.45 for the first, 0.852 for the second.

First: NCI-H1651
Second: EPLC-272H
The relative viability of the first is higher: 1.06 for the first, 0.983 for the second.

With NCI-H1792 the relative viability was 0.909.

Same assay, conditions: first compound 0.8 µM

Going from NCI-H460 to NCI-H727, the relative viability falls from 1.58 to 1.1.

Compared with NCI-H1734, NCI-H520 is lower in relative viability: 1.05 for the first, 0.971 for the second.

First: NCI-H2347
Second: SW 1573
The relative viability of the first is lower: 1.19 for the first, 1.35 for the second.

Going from 201T to NCI-H1915, the relative viability falls from 1.11 to 0.985.

Going from HCC-827 to LXF-289, the relative viability falls from 1.12 to 1.01.

First: NCI-H23
Second: NCI-H650
The relative viability of the first is higher: 1.35 for the first, 0.977 for the second.

First: NCI-H1651
Second: EPLC-272H
The relative viability of the first is lower: 0.9 for the first, 0.984 for the second.

NCI-H1792 gave a relative viability of 1.04.

Same assay, conditions: first compound 2.53 µM

Going from NCI-H727 to NCI-H1734, the relative viability rises from 0.278 to 0.344.

Going from NCI-H520 to NCI-H2347, the relative viability rises from 0.209 to 0.815.

Compared with SW 1573, 201T is higher in relative viability: 0.768 for the first, 1.04 for the second.

Going from NCI-H1915 to HCC-827, the relative viability rises from 0.79 to 1.11.

Going from LXF-289 to NCI-H23, the relative viability falls from 1.04 to 0.906.

Compared with NCI-H650, NCI-H1651 is higher in relative viability: 0.625 for the first, 0.935 for the second.

First: EPLC-272H
Second: NCI-H1792
The relative viability of the first is lower: 0.51 for the first, 0.851 for the second.

Same assay, conditions: first compound 8 µM

First: NCI-H460
Second: NCI-H727
The relative viability of the first is lower: 0.486 for the first, 0.747 for the second.

Compared with NCI-H1734, NCI-H520 is lower in relative viability: 0.269 for the first, 0.157 for the second.

First: NCI-H2347
Second: SW 1573
The relative viability of the first is higher: 0.642 for the first, 0.569 for the second.

First: 201T
Second: NCI-H1915
The relative viability of the first is higher: 0.993 for the first, 0.898 for the second.
